The record followed here is ChEMBL document CHEMBL5291721, “A preclinical secondary pharmacology resource illuminates target-adverse drug reaction associations of marketed drugs” (Nat Commun, 2023).

Test [1] has as its target T1, B2 bradykinin receptor (Homo sapiens, UniProt P30411).
T1 sequence (P30411 whole entry): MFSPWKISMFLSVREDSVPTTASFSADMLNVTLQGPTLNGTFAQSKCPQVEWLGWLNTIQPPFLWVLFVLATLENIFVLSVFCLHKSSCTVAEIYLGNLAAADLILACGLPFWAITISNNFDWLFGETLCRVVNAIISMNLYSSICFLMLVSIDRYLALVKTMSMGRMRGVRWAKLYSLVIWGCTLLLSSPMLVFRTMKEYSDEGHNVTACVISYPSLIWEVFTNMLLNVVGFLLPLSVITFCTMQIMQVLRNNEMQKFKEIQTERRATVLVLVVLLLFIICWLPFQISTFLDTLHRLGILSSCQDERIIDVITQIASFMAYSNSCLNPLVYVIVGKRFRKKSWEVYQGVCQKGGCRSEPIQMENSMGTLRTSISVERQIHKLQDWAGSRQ

Test [2] concerns the target Cannabinoid receptor 1 (Homo sapiens, UniProt P21554). The test is classed as functional, cell-based.
Test [3] deals with T2, Endothelin-1 receptor (Homo sapiens, UniProt P25101).
T2 sequence (P25101 whole entry): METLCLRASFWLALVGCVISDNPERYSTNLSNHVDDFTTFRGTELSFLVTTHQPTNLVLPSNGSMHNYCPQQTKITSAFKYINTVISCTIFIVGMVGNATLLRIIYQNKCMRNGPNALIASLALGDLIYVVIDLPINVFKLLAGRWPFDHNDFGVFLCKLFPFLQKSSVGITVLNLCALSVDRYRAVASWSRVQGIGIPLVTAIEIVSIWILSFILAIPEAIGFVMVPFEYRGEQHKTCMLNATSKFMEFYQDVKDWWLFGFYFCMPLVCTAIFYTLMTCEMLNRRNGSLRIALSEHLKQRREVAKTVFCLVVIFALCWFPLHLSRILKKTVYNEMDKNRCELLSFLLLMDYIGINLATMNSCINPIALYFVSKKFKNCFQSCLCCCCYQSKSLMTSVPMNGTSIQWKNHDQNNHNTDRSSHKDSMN

For test [4], the target named is Prothrombin (Homo sapiens, UniProt P00734). It is filed as functional.
Test [5] deals with T3, 5-hydroxytryptamine receptor 1A (Homo sapiens, UniProt P08908).
T3 sequence (P08908 whole entry): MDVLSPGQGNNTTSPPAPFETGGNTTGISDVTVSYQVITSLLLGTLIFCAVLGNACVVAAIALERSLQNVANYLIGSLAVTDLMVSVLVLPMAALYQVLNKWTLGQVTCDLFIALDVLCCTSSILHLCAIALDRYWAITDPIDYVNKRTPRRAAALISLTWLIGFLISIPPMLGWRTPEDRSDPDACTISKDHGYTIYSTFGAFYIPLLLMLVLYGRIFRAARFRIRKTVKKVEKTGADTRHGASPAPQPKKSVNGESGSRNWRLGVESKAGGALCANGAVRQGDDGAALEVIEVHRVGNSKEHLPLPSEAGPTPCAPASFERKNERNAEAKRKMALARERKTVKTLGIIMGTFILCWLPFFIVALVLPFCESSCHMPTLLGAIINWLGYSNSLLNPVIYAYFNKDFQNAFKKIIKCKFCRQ

Test [6] deals with Melanocortin receptor 4 (Homo sapiens, UniProt P32245).
Melanocortin receptor 4, sequence (P32245 whole entry): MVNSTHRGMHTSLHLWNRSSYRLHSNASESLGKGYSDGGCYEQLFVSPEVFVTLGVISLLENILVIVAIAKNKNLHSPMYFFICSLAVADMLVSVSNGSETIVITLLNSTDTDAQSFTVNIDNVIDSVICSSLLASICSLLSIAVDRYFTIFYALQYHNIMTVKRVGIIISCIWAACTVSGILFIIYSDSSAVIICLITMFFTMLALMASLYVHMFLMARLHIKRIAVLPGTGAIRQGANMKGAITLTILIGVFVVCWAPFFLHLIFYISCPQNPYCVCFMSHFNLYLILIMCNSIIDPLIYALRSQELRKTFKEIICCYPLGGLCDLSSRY
Test [7] has as its target T4, Thromboxane A2 receptor (Homo sapiens, UniProt P21731).
T4 sequence (P21731 whole entry): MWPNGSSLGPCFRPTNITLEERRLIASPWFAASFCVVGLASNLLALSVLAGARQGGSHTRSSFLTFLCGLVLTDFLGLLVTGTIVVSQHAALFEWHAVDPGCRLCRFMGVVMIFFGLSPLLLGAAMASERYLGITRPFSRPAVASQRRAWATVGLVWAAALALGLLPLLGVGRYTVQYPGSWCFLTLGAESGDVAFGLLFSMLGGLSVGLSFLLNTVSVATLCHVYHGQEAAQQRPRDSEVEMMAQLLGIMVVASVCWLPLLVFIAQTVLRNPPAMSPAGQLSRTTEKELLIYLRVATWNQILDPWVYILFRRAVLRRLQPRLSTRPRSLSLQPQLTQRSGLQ
It is filed as functional, cell-based.

Test [8] has as its target Beta-2 adrenergic receptor (Homo sapiens, UniProt P07550).
In test [9] the target is T5, Progesterone receptor (Homo sapiens, UniProt P06401).
T5 sequence (P06401 whole entry): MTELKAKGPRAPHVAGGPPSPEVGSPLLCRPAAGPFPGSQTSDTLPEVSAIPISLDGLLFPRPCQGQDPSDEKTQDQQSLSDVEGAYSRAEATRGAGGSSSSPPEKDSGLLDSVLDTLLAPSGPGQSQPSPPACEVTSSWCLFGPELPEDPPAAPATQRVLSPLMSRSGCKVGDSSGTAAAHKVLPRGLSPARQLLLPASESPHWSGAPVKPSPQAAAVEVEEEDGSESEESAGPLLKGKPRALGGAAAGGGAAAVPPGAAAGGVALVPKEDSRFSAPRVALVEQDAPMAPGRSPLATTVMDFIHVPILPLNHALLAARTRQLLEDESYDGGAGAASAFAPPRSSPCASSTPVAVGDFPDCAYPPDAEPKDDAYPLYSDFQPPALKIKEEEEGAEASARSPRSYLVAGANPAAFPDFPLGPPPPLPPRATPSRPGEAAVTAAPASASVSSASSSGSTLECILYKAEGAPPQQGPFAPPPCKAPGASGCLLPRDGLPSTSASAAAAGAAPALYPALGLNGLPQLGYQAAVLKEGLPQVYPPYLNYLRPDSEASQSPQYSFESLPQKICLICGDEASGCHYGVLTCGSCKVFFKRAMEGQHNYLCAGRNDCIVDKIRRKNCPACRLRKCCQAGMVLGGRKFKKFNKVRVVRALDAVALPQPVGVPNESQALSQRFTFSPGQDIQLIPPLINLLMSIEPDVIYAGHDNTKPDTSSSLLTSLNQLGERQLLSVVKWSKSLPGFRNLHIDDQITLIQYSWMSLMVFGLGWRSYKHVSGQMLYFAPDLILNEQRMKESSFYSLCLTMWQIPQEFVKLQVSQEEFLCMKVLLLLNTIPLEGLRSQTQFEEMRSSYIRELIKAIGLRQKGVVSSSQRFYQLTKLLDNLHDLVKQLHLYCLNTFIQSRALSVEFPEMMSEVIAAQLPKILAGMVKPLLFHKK
The test is classed as functional.

In test [10] the target is Histamine H1 receptor (Homo sapiens, UniProt P35367).
Histamine H1 receptor, sequence (P35367 whole entry): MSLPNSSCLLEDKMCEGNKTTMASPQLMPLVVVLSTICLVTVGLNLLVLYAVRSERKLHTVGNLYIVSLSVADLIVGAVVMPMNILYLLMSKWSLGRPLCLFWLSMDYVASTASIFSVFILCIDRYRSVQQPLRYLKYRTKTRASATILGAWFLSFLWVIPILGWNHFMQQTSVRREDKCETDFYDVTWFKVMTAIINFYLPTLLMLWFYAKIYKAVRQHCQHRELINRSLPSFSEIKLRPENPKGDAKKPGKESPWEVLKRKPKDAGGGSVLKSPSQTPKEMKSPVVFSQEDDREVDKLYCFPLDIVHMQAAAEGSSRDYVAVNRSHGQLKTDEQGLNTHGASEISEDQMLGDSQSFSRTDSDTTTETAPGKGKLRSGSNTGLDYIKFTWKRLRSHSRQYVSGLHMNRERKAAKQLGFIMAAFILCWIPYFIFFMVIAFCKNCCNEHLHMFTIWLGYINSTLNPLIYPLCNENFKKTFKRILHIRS
Further: assay procedure not described here.

Beta-2 adrenergic receptor, sequence (P07550 whole entry): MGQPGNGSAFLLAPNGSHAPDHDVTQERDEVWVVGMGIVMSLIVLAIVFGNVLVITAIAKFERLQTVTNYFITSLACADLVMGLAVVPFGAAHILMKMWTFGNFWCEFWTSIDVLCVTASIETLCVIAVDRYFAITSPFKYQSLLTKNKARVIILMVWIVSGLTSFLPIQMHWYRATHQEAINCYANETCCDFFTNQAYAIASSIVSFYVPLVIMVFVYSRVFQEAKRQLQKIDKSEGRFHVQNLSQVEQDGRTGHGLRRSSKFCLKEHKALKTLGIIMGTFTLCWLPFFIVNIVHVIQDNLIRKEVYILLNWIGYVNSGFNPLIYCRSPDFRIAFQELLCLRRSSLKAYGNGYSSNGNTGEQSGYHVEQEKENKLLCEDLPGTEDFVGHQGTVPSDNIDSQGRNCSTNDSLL
Cannabinoid receptor 1, sequence (P21554 whole entry): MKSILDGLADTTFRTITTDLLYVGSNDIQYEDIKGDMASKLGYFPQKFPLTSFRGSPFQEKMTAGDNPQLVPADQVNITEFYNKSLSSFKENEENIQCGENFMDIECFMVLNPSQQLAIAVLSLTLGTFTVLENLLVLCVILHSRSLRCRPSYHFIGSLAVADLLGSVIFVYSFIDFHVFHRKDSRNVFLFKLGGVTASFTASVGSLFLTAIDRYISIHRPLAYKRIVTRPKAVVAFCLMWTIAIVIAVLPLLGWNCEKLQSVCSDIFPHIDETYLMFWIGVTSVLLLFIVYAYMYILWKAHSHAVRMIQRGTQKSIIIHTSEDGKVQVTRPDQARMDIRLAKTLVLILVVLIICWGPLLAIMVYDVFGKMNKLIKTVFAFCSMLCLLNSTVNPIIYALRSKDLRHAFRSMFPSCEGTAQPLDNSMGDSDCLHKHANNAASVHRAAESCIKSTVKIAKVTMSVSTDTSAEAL

Consider `CC[C@H]1OC(=O)[C@H](C)[C@@H](O[C@H]2C[C@@](C)(OC)[C@@H](O)[C@H](C)O2)[C@H](C)[C@@H](O[C@@H]2O[C@H](C)C[C@H](N(C)C)[C@H]2O)[C@](C)(O)C[C@@H](C)CN(C)[C@H](C)[C@@H](O)[C@]1(C)O` [AZITHROMYCIN], for which the AC50 in test [1], in test [2], in [3], in test [4], in test [5] and in [6] was greater than 30 µM in each case. This compound had an AC50 in [7] greater than 30 µM.
Turning to `NCC(CC(=O)O)c1ccc(Cl)cc1` (configuration not stated) [BACLOFEN], the AC50 in [8] was greater than 10 µM; in test [1], greater than 30 µM; in test [2], greater than 30 µM; in test [3] it was greater than 30 µM; in [4], greater than 30 µM; in test [5], greater than 30 µM. The AC50 in [6], in [9] and in test [7] was greater than 30 µM throughout.
Turning to `CC(C)C[C@H]1C(=O)N2CCC[C@H]2[C@]2(O)O[C@](NC(=O)[C@@H]3C=C4c5cccc6[nH]c(Br)c(c56)C[C@H]4N(C)C3)(C(C)C)C(=O)N12` [BROMOCRIPTINE], the AC50 in test [8] was 8.4 µM; in [1] it was greater than 30 µM; in [2], greater than 30 µM; in test [3], greater than 30 µM; in [4], greater than 30 µM; in test [5], 0.003 µM. Besides, the AC50 in [6] was greater than 30 µM; in test [9], greater than 30 µM; in test [7], 18.8 µM.
Take `Cc1ccc(-c2cc(C(F)(F)F)nn2-c2ccc(S(N)(=O)=O)cc2)cc1` [CELECOXIB]: the AC50 in [8] was greater than 10 µM; in [1], greater than 30 µM; in [2], greater than 30 µM; in [3] it was greater than 30 µM; in test [6], greater than 10 µM.
`CC1=C(C(=O)O)N2C(=O)[C@@H](NC(=O)[C@H](N)c3ccccc3)[C@H]2SC1` [CEPHALEXIN ANHYDROUS]: the AC50 in [8] was greater than 10 µM; in test [1], greater than 30 µM; in test [2] it was greater than 30 µM; in test [3], greater than 30 µM; in [6], greater than 30 µM.
Turning to `CN(C)CCC(c1ccc(Cl)cc1)c1ccccn1` (configuration not stated) [CHLORPHENIRAMINE], the AC50 in test [8] was greater than 10 µM; in test [1], greater than 30 µM; in [2], greater than 30 µM; in test [3], greater than 30 µM; in test [6], greater than 30 µM.
Take `O=C1Nc2ccc(Cl)cc2[C@@](C#CC2CC2)(C(F)(F)F)O1` [EFAVIRENZ]: the AC50 in [8], in [1], in test [2], in [3], in test [10] and in test [6] was greater than 30 µM in each case. Further, the AC50 in test [9] is greater than 30 µM.
As to `C[C@]12CCC(=O)C=C1CC[C@@H]1[C@@H]2[C@@H](O)C[C@@]2(C)[C@H]1CC[C@]2(O)C(=O)CO` [HYDROCORTISONE], the AC50 in test [8] was greater than 10 µM; in test [1], greater than 30 µM; in [2], greater than 30 µM; in test [3], greater than 30 µM; in test [6] it was greater than 30 µM.
On to `CCC(C)n1ncn(-c2ccc(N3CCN(c4ccc(OCC5COC(Cn6cncn6)(c6ccc(Cl)cc6Cl)O5)cc4)CC3)cc2)c1=O` (configuration not stated) [ITRACONAZOLE], for which the AC50 in test [8], in test [1], in [2], in [3], in [6] and in test [9] was greater than 30 µM in each case.
Turning to `C[C@@H](O)[C@H]1C(=O)N2C(C(=O)O)=C(S[C@@H]3CN[C@H](C(=O)N(C)C)C3)[C@H](C)[C@H]12` [MEROPENEM], the AC50 is greater than 10 µM in [8]; greater than 10 µM in [1]; greater than 300 µM in [2]; greater than 300 µM in test [3]; greater than 10 µM in test [6]; greater than 300 µM in test [9].
Turning to `CCCN1C[C@H](CSC)C[C@@H]2c3cccc4[nH]cc(c34)C[C@H]21` [PERGOLIDE], the AC50 was greater than 10 µM in test [8]; greater than 30 µM in [1]; greater than 10 µM in test [2]; greater than 30 µM in test [3]; greater than 30 µM in test [6]; greater than 30 µM in [9].
Regarding `CS(=O)(=O)c1ccc(C2=C(c3ccccc3)C(=O)OC2)cc1` [ROFECOXIB], the AC50 was greater than 10 µM in [8]; greater than 30 µM in test [1]; greater than 30 µM in [2]; greater than 30 µM in test [3]; greater than 30 µM in [4]; greater than 30 µM in test [5]. In addition, the AC50 in test [6] is 24.1 µM; in test [7], greater than 30 µM.
In the case of `CO[C@H]1C[C@@H]2CC[C@@H](C)[C@@](O)(O2)C(=O)C(=O)N2CCCC[C@H]2C(=O)O[C@H]([C@H](C)C[C@@H]2CC[C@@H](O)[C@H](OC)C2)CC(=O)[C@H](C)/C=C(\C)[C@@H](O)[C@@H](OC)C(=O)[C@H](C)C[C@H](C)/C=C/C=C/C=C/1C` [SIROLIMUS], the AC50 in test [8] was greater than 10 µM; in [1], greater than 30 µM; in test [2] it was greater than 30 µM; in [3], greater than 30 µM; in test [4] it was greater than 30 µM; in [5], greater than 30 µM. Besides, the AC50 in test [6] and in test [7] was greater than 30 µM in each case.
With `Cc1cn([C@H]2C=C[C@@H](CO)O2)c(=O)[nH]c1=O` [STAVUDINE], the AC50 in test [8] was greater than 10 µM; in [1], greater than 30 µM; in test [2], greater than 30 µM; in [3], greater than 30 µM; in test [4], greater than 30 µM; in [5], greater than 30 µM. Also, the AC50 in [6] and in test [7] was greater than 30 µM throughout.
In the case of `Cc1cn([C@H]2C[C@H](N=[N+]=[N-])[C@@H](CO)O2)c(=O)[nH]c1=O` [ZIDOVUDINE], the concentration at half-maximal activity (AC50) in [8] was greater than 10 µM; in [1], greater than 30 µM; in test [2], greater than 30 µM; in test [3], greater than 30 µM; in [4] it was greater than 30 µM; in [5], greater than 30 µM. For the same compound, the AC50 in [6] and in [7] was greater than 30 µM each time.
